PubChem BioAssay (NCI)
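Results reflect a 48-hour exposure of cells in 96-well plates to compound at five concentrations. GI50 is the concentration that inhibits growth by half. The concentration for full growth arrest is given as TGI.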

Key:
Assay in all cases: NCI-60 cell line screen, 48 h
RPMI-8226 leukemia = system: RPMI-8226 leukemia
A549 NSCLC = system: A549 NSCLC
SN12C renal = system: SN12C renal
HOP-62 NSCLC = system: HOP-62 NSCLC
SK-OV-3 ovarian = system: SK-OV-3 ovarian
OVCAR-8 ovarian = system: OVCAR-8 ovarian
SF-268 CNS = system: SF-268 CNS
HCT-15 colon = system: HCT-15 colon
UACC-257 melanoma = system: UACC-257 melanoma
HS 578T breast = system: HS 578T breast

Row | Structure (SMILES) | GI50 (RPMI-8226 leukemia) [µM] | TGI (RPMI-8226 leukemia) [µM] | GI50 (A549 NSCLC) [µM] | TGI (A549 NSCLC) [µM] | GI50 (SN12C renal) [µM] | TGI (SN12C renal) [µM] | GI50 (HOP-62 NSCLC) [µM] | TGI (HOP-62 NSCLC) [µM] | GI50 (SK-OV-3 ovarian) [µM] | TGI (SK-OV-3 ovarian) [µM] | GI50 (OVCAR-8 ovarian) [µM] | TGI (OVCAR-8 ovarian) [µM] | GI50 (SF-268 CNS) [µM] | TGI (SF-268 CNS) [µM] | GI50 (HCT-15 colon) [µM] | TGI (HCT-15 colon) [µM] | GI50 (UACC-257 melanoma) [µM] | TGI (UACC-257 melanoma) [µM] | GI50 (HS 578T breast) [µM] | TGI (HS 578T breast) [µM]
1 | CCOC(=O)c1sc2ncn(Cc3cccc(Cl)c3)c(=O)c2c1C | 5.58 | 18.4 | 16.4 | 30 | 15.3 | 28.6 | 12 | 24.4 | 17.4 | 31.2 | 15.1 | 28.4 | 15.1 | 28.4 | 14.1 | 27 | 15.6 | 29.3 | 17.5 | 31.3
2 | O=C1c2cccnc2-c2nc(-c3ccccn3)cc3c2c1nc1ccccc13 | 0.253 | 1.03 | 1.38 | 3.39 | 0.21 | 1.19 | 0.139 | 1.49 | 0.192 | 0.581 | 0.15 | 0.402 | 0.449 | 2.5 | < 0.0209 | 0.259 | 0.533 | 1.97 | 0.705 | 4.65
3 | C[C@@H](Oc1cc(-c2cnn(C3CCNCC3)c2)cnc1N)c1c(Cl)ccc(F)c1Cl | 1.91 | 8.64 | 0.947 | > 10 | 1.8 | > 10 | 2.57 | > 10 | 5.85 | > 10 | 2.86 | > 10 | 3.48 | > 10 | 2.4 | > 10 | 1.52 | 3.15 | 0.966 | 6.25
4 | COc1cc2c3c(n(CCCO)c(=O)c2cc1OC)-c1cc2c(cc1C3=O)OCO2 | 11.6 | > 78 | 16.9 | > 100 | 3.53 | > 54.3 | 4.28 | 78.3 | 55.3 | > 100 | 13.7 | > 100 | 9.04 | > 100 | 33.4 | > 100 | 64.7 | > 100 | 52 | > 100
5 | C=C(CN1CCc2ccccc2C1)c1ccc(/C=C/C(=O)Nc2ccccc2N)cc1 | 2.92 | 13.4 | 1.79 | > 100 | 4.49 | 31 | 5.17 | > 100 | 66 | > 100 | 5.86 | > 100 | 2.44 | 55.3 | 1.69 | 62.9 | 1.3 | 28 | 17.1 | > 100
6 | OCc1ccc(N(Cc2ccc(F)cc2)C2CCC2)cc1Cl | 3.03 | 25.4 | 2.04 | 17.9 | 11.8 | 24.4 | 2.05 | 17.5 | 11 | 23 | 13.4 | 29.1 | 18.1 | 33.9 | 10.9 | 25.7 | 0.121 | 0.46 | 19 | 45.4
7 | Cn1cc(-c2nc(-c3c[nH]c4ncccc34)cs2)c2cc(Cl)ccc21 | 4.87 | > 100 | 3.94 | > 100 | 4.72 | 94.2 | 25.3 | > 100 | 16.1 | > 100 | 6.04 | > 100 | 5.28 | > 100 | 2.34 | > 100 | 3.26 | 16.5 | 4.18 | 32.7
8 | O=C1CC2(CCCc3sccc32)C(=O)N1 (stereo not given) | – | > 100 | – | > 100 | – | > 100 | – | > 100 | – | > 100 | – | > 100 | – | > 100 | – | > 100 | – | > 100 | – | > 100
9 | C=C1C(=O)OC2C1C(OC(=O)/C(C)=C/C)CC(O)(CCl)C1C(OC(C)=O)C=C(C)C21O (stereo not given) | – | 31.3 | – | > 67.3 | – | 40.4 | – | > 66 | – | > 100 | – | 26.5 | – | 32.4 | – | 21.7 | – | 34.1 | – | > 100
10 | COc1ccc(-n2c(-c3ccc(NC(=O)CCCl)cc3)nnc2-c2cc(OC)c(OC)c(OC)c2)cc1 | 2.85 | 8.49 | 3.89 | 11.2 | 7.33 | > 14.3 | 3.49 | 13.4 | 4.34 | > 14.3 | 7.87 | > 14.3 | 4.09 | > 14.3 | 3.68 | > 14.3 | 6.23 | > 14.3 | 3.89 | 12.6
11 | O=C(CSc1nc2ccc([N+](=O)[O-])cc2[nH]1)Nc1cccc(C(F)(F)F)c1 | 1.37 | > 23.6 | 2.3 | 12.7 | 2.18 | 10.6 | 2.56 | 10.8 | 1.66 | 5.86 | 2.93 | 15.8 | 2.73 | 13.9 | 2.74 | 12.7 | 1.33 | 6.63 | 2.45 | 10.7
12 | O=C(Nc1cccc(NS(=O)(=O)c2ccc(F)cc2)c1)c1ccc(-c2ccccc2)cc1 | 2.31 | 11.4 | 3.34 | > 100 | 2.96 | 11.8 | 4.66 | 37.2 | 4.78 | 38.5 | 2.88 | 17.5 | 3.22 | 66.6 | 2.86 | 18.3 | 2.76 | 9.93 | 4.68 | 52.5
13 | O=C(O)CSCC(=O)c1ccccc1 | – | > 100 | – | > 100 | – | > 100 | – | > 100 | – | > 100 | – | > 100 | – | > 100 | – | > 100 | – | > 100 | – | > 100
14 | CCN(Cc1ccc(F)cc1F)c1ccc(CO)c(Cl)c1 | 2.96 | 32 | 1.85 | 21.2 | 11.2 | 23.8 | 1.84 | 20.2 | 7.65 | 22.1 | 12.9 | 41.3 | 22.7 | > 66.9 | 11.2 | 30.5 | 0.128 | 0.372 | 18.9 | > 72.8
15 | COc1c(O)cc2oc3cc(O)c(CC=C(C)C)c(O)c3c(=O)c2c1C/C=C(\C)CCC=C(C)C | 10.6 | 31.3 | 5.1 | 9.64 | 5.68 | 10.9 | 5.66 | 10.1 | 5.86 | 10.4 | 5.45 | 10.6 | 5.56 | 10 | 5.69 | 11.7 | 5.63 | 10.5 | 7.11 | 16.7
16 | O=c1oc2ccccc2cc1-c1ccc([N+](=O)[O-])cc1 | – | > 100 | – | > 100 | – | > 100 | – | > 100 | – | > 100 | – | > 100 | – | > 100 | – | > 100 | – | > 100 | – | > 100
